Results on 31 compounds are retold here after patent publication US20060116390A1, “Hepatitis c virus inhibitors” (priority 2003, published 2006).

The experiment concerns HCV proteins in Rep5.1 cells (replicon cell line). Put plainly: Inhibitory activity of HCV: cell-based ELISA in replicon cell line Rep5.1 (decrease of HCV proteins). The note with it: Rep5.1 cells, 72 hours with drug. Further details: species or system hepatitis C virus. The method in brief:
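Rep5.1 replicon cells (5000/well, DMEM-10 with 500 μg/ml G418) were given serially diluted drug 4 h after seeding. After 72 h, cells were fixed in methanol/acetone and HCV proteins detected by cell-based ELISA using replicon-specific patient plasma antibodies. IC50 is the concentration giving 50% protein decrease versus the no-drug control.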

The mark [1] stands for this setting: Hepatitis C virus, 72 h, concentration at which 50% of HCV proteins was decreased, Table 2, read-out: IC50.
Where [2] appears, read: Hepatitis C virus, 72 h, decrease of HCV proteins measured by HCV antibody, Table 1, read-out: Level (IC50 values classified).
Setting [3] is: concentration at which 50% of HCV proteins was decreased, Table 2, read-out: IC50.

Like-named read-outs stand apart in the source and are kept apart here.

In the case of `COc1ccc(C2(COC(=O)C3=C(C)NC(=S)NC3CF)CC2)cc1` (centres unmarked) [66′, 4-fluoromethyl-6-methyl-2-thioxo-1,2,3,4-tetrahydro-pyrimidine-5-carboxylic acid 1-(4-methoxy-phenyl)-cyclopropylmethyl ester], the IC50 was 8 µM under setting [1] and 1 to 10 µM under setting [2].

Consider `COCC1NC(=S)NC(C)=C1C(=O)OCc1ccccc1` (centres unmarked) [Compound 109, 4-methoxymethyl-6-methyl-2-thioxo-1,2,3,4-tetrahydro-pyrimidine-5-carboxylic acid benzyl ester], for which the IC50 was 100 µM under setting [1] and above 20 µM under setting [2].

Take `CC1=C(C(=O)OCCc2ccc(F)cc2)C(CF)NC(=S)N1` (centres unmarked) [32′, 4-fluoromethyl-6-methyl-2-thioxo-1,2,3,4-tetrahydro-pyrimidine-5-carboxylic acid 2-(4-fluoro-phenyl)-ethyl ester]: the IC50 was 0.9 µM under setting [1] and below 1 µM under setting [2].

For `CC1=C(C(=O)OCCCc2ccccc2)C(CO)NC(=S)N1` (centres unmarked) [14″, 4-hydroxymethyl-6-methyl-2-thioxo-1,2,3,4-tetrahydro-pyrimidine-5-carboxylic acid 3-phenyl-propyl ester], the half-maximal inhibitory concentration (IC50) runs as follows: under setting [1], 2.6 µM; under setting [2], 1 to 10 µM.

As to `CC1=C(C(=O)OCC#Cc2ccccc2)C(CO)NC(=S)N1` (centres unmarked) [40″, 4-hydroxymethyl-6-methyl-2-thioxo-1,2,3,4-tetrahydro-pyrimidine-5-carboxylic acid 3-phenyl-prop-2-inyl ester], the 50% inhibitory concentration (IC50) under setting [3] is above 100 µM.

For `CC1=C(C(=O)OCCCc2sccc2C)C(CO)NC(=S)N1` (centres unmarked) [17″, 4-hydroxymethyl-6-methyl-2-thioxo-1,2,3,4-tetrahydro-pyrimidine-5-carboxylic acid 3-(3-methyl-thiophen-2-yl)-propyl ester], the 50% inhibitory concentration (IC50) by setting is: under setting [1], 9 µM; under setting [2], 1 to 10 µM.

As for `CC1=C(C(=O)OCc2ccc([N+](=O)[O-])cc2)CNC(=S)N1` [Compound 7, 6-methyl-2-thioxo-1,2,3,4-tetrahydro-pyrimidine-5-carboxylic acid 4-nitro-benzyl ester], the 50% inhibitory concentration (IC50) under setting [1] stood at 2.5 µM and the IC50 under setting [2] was 1 to 10 µM.

For the compound `CC1=C(C(=O)OCc2ccccc2Cl)CNC(=S)N1` [Compound 84, 6-methyl-2-thioxo-1,2,3,4-tetrahydro-pyrimidine-5-carboxylic acid 2-chloro-benzyl ester], the 50% inhibitory concentration (IC50) runs as follows: under setting [1], below 0.4 µM; under setting [2], below 1 µM.

For `CCCC1=C(C(=O)OCc2ccccc2)CNC(=S)N1` [Compound 25, 6-propyl-2-thioxo-1,2,3,4-tetrahydro-pyrimidine-5-carboxylic acid benzyl ester], the half-maximal inhibitory concentration (IC50) was 2 µM under setting [1] and 1 to 10 µM under setting [2].

In the case of `CC1=C(C(=O)OCc2ccccc2)C(C(F)(F)F)NC(=S)N1` (centres unmarked) [Compound 234, 6-methyl-2-thioxo-4-trifluoromethyl-1,2,3,4-tetrahydro-pyrimidine-5-carboxylic acid benzyl ester], the half-maximal inhibitory concentration (IC50) runs as follows: under setting [1], 100 µM; under setting [2], above 20 µM.

Consider `CC1=C(C(=O)OCCc2ccc(N(C)CC3CC3)c([N+](=O)[O-])c2)C(CO)NC(=S)N1` (centres unmarked) [98″, 4-Hydroxymethyl-6-methyl-2-thioxo-1,2,3,4-tetrahydro-pyrimidine-5-carboxylic acid 2-[4-(cyclopropylmethyl-methyl-amino)-3-nitro-phenyl]-ethyl ester], for which the IC50 was 1 µM under setting [1] and below 1 µM under setting [2].

`C=CCN(CC)c1ccc(CCOC(=O)C2=C(C)NC(=S)NC2CO)cc1[N+](=O)[O-]` (centres unmarked) [97″, 4-Hydroxymethyl-6-methyl-2-thioxo-1,2,3,4-tetrahydro-pyrimidine-5-carboxylic acid 2-[4-(allyl-ethyl-amino)-3-nitro-phenyl]-ethyl ester]: the IC50 under setting [1] was 0.6 µM and the IC50 under setting [2] is below 1 µM.

Take `CC1=C(C(=O)OCCc2ccsc2)C(CCl)NC(=S)N1` (centres unmarked) [76′, 4-chloromethyl-6-methyl-2-thioxo-1,2,3,4-tetrahydro-pyrimidine-5-carboxylic acid 2-thiophen-3-yl-ethyl ester]: the IC50 reads like this: under setting [1], 62 µM; under setting [2], above 20 µM.

As for `CC1=C(C(=O)OCc2ccccc2SCC(C)C)CNC(=S)N1` [Compound 111, 6-methyl-2-thioxo-1,2,3,4-tetrahydro-pyrimidine-5-carboxylic acid 2-isobutylsulfanyl-benzyl ester], the concentration for half-maximal inhibition (IC50) runs as follows: under setting [1], 2 µM; under setting [2], 1 to 10 µM.

As for `CC1=C(C(=O)OCc2cc3ccccc3s2)CNC(=S)N1` [Compound 219, 6-methyl-2-thioxo-1,2,3,4-tetrahydro-pyrimidine-5-carboxylic acid benzo[b]thiophen-2-ylmethyl ester], the half-inhibitory concentration (IC50) runs as follows: under setting [1], below 0.4 µM; under setting [2], below 1 µM.

For `C#CC(C)OCC#CCOC(=O)C1=C(C)NC(=S)NC1` (centres unmarked) [Compound 246, 6-methyl-2-thioxo-1,2,3,4-tetrahydro-pyrimidine-5-carboxylic acid 4-(1-methyl-prop-2-inyloxy)-but-2-inyl ester], the IC50 under setting [3] came out at 68 µM.

Regarding `CC1=C(C(=O)OCCc2ccc(F)cc2)C(CO)NC(=S)N1` (centres unmarked) [5″, 4-hydroxymethyl-6-methyl-2-thioxo-1,2,3,4-tetrahydro-pyrimidine-5-carboxylic acid 2-(4-fluoro-phenyl)-ethyl ester], the IC50 under setting [1] came to 6 µM and the concentration for half-maximal inhibition (IC50) under setting [2] fell in the range of 1 to 10 µM.

As to `CC(=O)Oc1ccccc1CCC(=O)OCC1NC(=S)NC(C)=C1C(=O)OCCc1cccc([N+](=O)[O-])c1` (centres unmarked) [81″, 4-[3-(2-acetoxy-phenyl)-propionyloxymethyl]-6-methyl-2-thioxo-1,2,3,4-tetrahydro-pyrimidine-5-carboxylic acid 2-(3-nitro-phenyl)-ethyl ester], the half-inhibitory concentration (IC50) by setting is: under setting [1], 6.5 µM; under setting [2], 1 to 10 µM.

With `CC1=C(C(=O)OCC=Cc2ccccc2)CNC(=S)N1` [Compound 54, 6-methyl-2-thioxo-1,2,3,4-tetrahydro-pyrimidine-5-carboxylic acid 3-phenyl-allyl ester], the IC50 under setting [1] was below 0.5 µM and the IC50 under setting [2] is below 1 µM.

On to `C=C(Cl)COC(=O)C1=C(C)NC(=S)NC1` [Compound 98, 6-methyl-2-thioxo-1,2,3,4-tetrahydro-pyrimidine-5-carboxylic acid 2-chloro-allyl ester], for which the IC50 was 7 µM under setting [1] and 1 to 10 µM under setting [2].

On to `CC1=C(C(=O)OCCc2cccc(Cl)c2)C(COC(=O)OCc2oc(=O)oc2C)NC(=S)N1` (centres unmarked) [78″, 6-methyl-4-(5-methyl-2-oxo-[1,3]dioxol-4-ylmethoxycarbonyloxymethyl)-2-thioxo-1,2,3,4-tetrahydro-pyrimidine-5-carboxylic acid 2-(3-chloro-phenyl)-ethyl ester], for which the half-inhibitory concentration (IC50) reads like this: under setting [1], 0.8 µM; under setting [2], below 1 µM.

Turning to `CCC#CCCOC(=O)C1=C(C)NC(=S)NC1` [Compound 157, 6-methyl-2-thioxo-1,2,3,4-tetrahydro-pyrimidine-5-carboxylic acid hex-3-inyl ester], the half-inhibitory concentration (IC50) under setting [3] stood at 1 µM.

Turning to `CC1=C(C(=O)OCCCc2ccsc2F)C(CF)NC(=S)N1` (centres unmarked) [52′, 4-fluoromethyl-6-methyl-2-thioxo-1,2,3,4-tetrahydro-pyrimidine-5-carboxylic acid 3-(2-fluoro-thiophen-3-yl)-propyl ester], the 50% inhibitory concentration (IC50) by setting is: under setting [1], 22 µM; under setting [2], above 20 µM.

Regarding `CC1=C(C(=O)OCc2cccc(Cl)c2)CNC(=S)N1` [Compound 91, 6-methyl-2-thioxo-1,2,3,4-tetrahydro-pyrimidine-5-carboxylic acid 3-chloro-benzyl ester], the IC50 reads like this: under setting [1], below 0.4 µM; under setting [2], below 1 µM.

Regarding `O=C(OCCc1ccsc1)C1=C(CF)NC(=S)NC1` [57′, 6-fluoromethyl-2-thioxo-1,2,3,4-tetrahydro-pyrimidine-5-carboxylic acid 2-thiophen-3-yl-ethyl ester], the 50% inhibitory concentration (IC50) under setting [1] was 10 µM and the IC50 under setting [2] lay within 1 to 10 µM.

As to `CC1=C(C(=O)OCc2ccc(C)c([N+](=O)[O-])c2)CNC(=S)N1` [Compound 136, 6-methyl-2-thioxo-1,2,3,4-tetrahydro-pyrimidine-5-carboxylic acid 3-nitro-4-methyl-benzyl ester], the IC50 was 0.6 µM under setting [1] and below 1 µM under setting [2].

Turning to `CC1=C(C(=O)OCc2cccc(F)c2)CNC(=S)N1` [Compound 83, 6-methyl-2-thioxo-1,2,3,4-tetrahydro-pyrimidine-5-carboxylic acid 3-fluoro-benzyl ester], the 50% inhibitory concentration (IC50) is 1 µM under setting [1] and below 1 µM under setting [2].

In the case of `CC1=C(C(=O)OCCc2cn(C)c3ccccc23)CNC(=S)N1` [Compound 165, 6-methyl-2-thioxo-1,2,3,4-tetrahydro-pyrimidine-5-carboxylic acid 2-(1-methyl-1H-indol-3-yl)-ethyl ester], the concentration for half-maximal inhibition (IC50) is, setting by setting: under setting [1], 1.4 µM; under setting [2], 1 to 10 µM.

Regarding `COc1ccccc1CCOC(=O)C1=C(C)NC(=S)NC1CO` (centres unmarked) [9″, 4-hydroxymethyl-6-methyl-2-thioxo-1,2,3,4-tetrahydro-pyrimidine-5-carboxylic acid 2-(2-methoxy-phenyl)-ethyl ester], the half-maximal inhibitory concentration (IC50) under setting [1] turned out to be 20 µM and the half-inhibitory concentration (IC50) under setting [2] was in the range of 10 to 20 µM.

With `CC1=C(C(=O)OCc2cccc(Oc3ccccc3)c2)C(CO)NC(=S)N1` (centres unmarked) [46″, 4-hydroxymethyl-6-methyl-2-thioxo-1,2,3,4-tetrahydro-pyrimidine-5-carboxylic acid 3-phenoxy-benzyl ester], the IC50 under setting [1] was below 0.4 µM and the 50% inhibitory concentration (IC50) under setting [2] is below 1 µM.

Consider `COc1cscc1CCOC(=O)C1=C(C)NC(=S)NC1` [40′, 6-methyl-2-thioxo-1,2,3,4-tetrahydro-pyrimidine-5-carboxylic acid 2-(4-methoxy-thiophen-3-yl)-ethyl ester], for which the IC50 runs as follows: under setting [1], 0.6 µM; under setting [2], below 1 µM.
